The results in this text go back to PubChem BioAssay (NCI).

Assay in all cases: DTP human tumour cell line panel, 48 h
For assay [1], the system named is KM12 colon.
Assay [2] concerns HOP-92 NSCLC.
For assay [3], the system named is IGROV1 ovarian.
Assay [4] relates to NCI-H522 lung.
Assay [5] deals with SN12C renal.
Assay [6] has as its system OVCAR-5 ovarian.
The test system of assay [7] is HCT-15 colon.
The test system of assay [8] is SK-MEL-2 melanoma.
The test system of assay [9] is UO-31 renal.
The test system of assay [10] is SNB-75 CNS.

Values joined by “and” are separate entries in the source; they are usually repeats but may differ in a detail not shown here. Equal entries are not always repeated.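 Grown in 96-well plates, cells were treated for 48 hours with each compound at five concentrations. Insufficient inhibition: endpoint recorded as highest concentration tested. The concentration for 50% growth inhibition is given as GI50. TGI: concentration producing complete growth inhibition.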 Some results are limits rather than exact numbers.

One may read the GI50 as the concentration giving 50% growth inhibition. As a reminder, the TGI is the concentration at which net growth stops. With `O=C(CS(=O)c1nc2ccccc2nc1-c1ccccc1)Nc1ccc(Cl)cc1` (stereo not given), the GI50 in assay [1] is 21.7 µM; in [2], 12.3 µM; in assay [3], 31.2 µM; in [4] it was 18.6 µM; in assay [5], 18.2 µM; in assay [6] it was 33.7 µM. Besides, the GI50 is 21.2 µM in assay [7], 27.4 µM in assay [8], 25 µM in [9] and over 100 µM in assay [10]. Also, the TGI in [1] was 55.2 µM; in assay [2], 49.2 µM; in assay [3], 99.5 µM; in assay [4], 60.1 µM; in assay [5], 33.7 µM; in assay [6], over 100 µM. Besides, the TGI in assay [7] is 59.4 µM; in [8], 65.5 µM; in assay [9] it was over 100 µM; in assay [10], over 100 µM.
In the case of `Cc1c(C(=O)/C=C/c2ccc(Cl)cc2)nnn1-c1ccnc2c(C(F)(F)F)cccc12`, the GI50 was 77.1 µM in [1]; 18.4 µM in assay [2]; 97.3 µM in assay [3]; 27.6 µM in assay [4]; 16.3 µM in assay [5]; over 100 µM in assay [6]. In addition, the GI50 in assay [7] was 54.6 µM; in [8], over 100 µM; in [9] it was 33.5 µM; in assay [10], 15.9 µM. Besides, the TGI is over 100 µM in assay [1]; 60.6 µM in [2]; over 100 µM in [3]; over 100 µM in [4]; over 100 µM in [5]; over 100 µM in assay [6]. For the same compound, the concentration for total growth inhibition (TGI) in assay [7] is over 100 µM; in [8], over 100 µM; in assay [9], over 100 µM; in assay [10] it was 36.5 µM.
On to `CCCCCCCCCCCCSC1=CC(=O)C=CC1=O`, for which the GI50 in assay [1] was 1.92 µM; in assay [2], 2.56 µM; in assay [3], 1.06 µM; in [4], 0.191 µM; in assay [5], 3.24 µM; in assay [6] it was 11.8 µM. In addition, the GI50 is 1.92 µM in assay [7], 7.5 µM in assay [8], 0.578 µM in assay [9] and 1.14 µM in [10]. The TGI is 8.37 µM in [1]; 12.6 µM in [2]; 3.22 µM in assay [3]; 0.763 µM in [4]; 24.7 µM in assay [5]; over 42 µM in assay [6]. For the same compound, the TGI is over 32.4 µM in assay [7], 19.4 µM in assay [8], 2.54 µM in [9] and 6.38 µM in assay [10].
In the case of `CCOC(=O)Nc1cc2c(c(N)n1)N=C(c1ccccc1)CN2`, the GI50 in assay [1] was under 0.0001 µM; in assay [2], under 0.0001 µM; in assay [3], under 0.0001 µM; in [4] it was under 0.0001 µM; in assay [7], under 0.0001 µM; in [9] it was 0.107 µM. Moreover, the total growth inhibition concentration (TGI) in assay [1] was 49 µM; in assay [2], 34.8 µM; in assay [4], under 0.0001 µM; in [5], 37.8 µM; in assay [6] it was 27.7 µM; in assay [10], 31 µM.
For `CC(C)c1ccc(C(O)(C(=O)O)c2ccc(C(C)C)cc2)cc1`, the total growth inhibition concentration (TGI) in assay [1], in assay [2], in assay [3], in [4], in assay [5] and in assay [6] was over 100 µM in each case. The TGI in [7], in assay [9] and in assay [10] was over 100 µM throughout.
On to `CC[C@@]1(O)C(=O)OCc2c1cc1n(c2=O)Cc2cc3cccc(N)c3nc2-1`, for which the GI50 was over 100 µM in assay [1]; over 100 µM in assay [2]; 11.5 µM in [3]; 3.92 µM in assay [4]; 3.58 µM in [5]; 25.8 µM in assay [6]. The GI50 in [8] was 29.7 µM; in assay [9], 8.44 µM; in assay [10] it was 2.72 µM. Also, the TGI was over 100 µM in assay [1]; over 100 µM in assay [2]; 38.8 µM in [3]; over 100 µM in [4]; over 100 µM in assay [5]; over 100 µM in assay [6]. Further, the TGI was 65.6 µM in assay [8], over 100 µM in assay [9] and 16.1 µM in [10].
For `O=C(O)C1C2C=CC(O2)C1C(=O)NCc1ccncc1` (stereo not given), the total growth inhibition concentration (TGI) in assay [1], in [2], in [3], in [4], in [5] and in assay [6] was over 100 µM throughout. Further, the concentration for total growth inhibition (TGI) in assay [8], in assay [9] and in assay [10] was over 100 µM in each case.
For `C=C(C)C1CC=C(C)C(O)([C@@]2(O)C[C@H](C(=C)C)CC=C2C)C1` (stereo not given in full), the TGI in [1] was 43.4 µM; in assay [2] it was 40.6 µM; in assay [3] it was 53.4 µM; in assay [4], 41.5 µM; in assay [5], 33.2 µM; in assay [6], 63.5 µM. Moreover, the TGI was 35.9 µM in assay [8], 55.9 µM in [9] and 54.2 µM in assay [10].
On to `C=C1C(=O)O[C@H]2C3OC3(C)CC/C=C(/C(=O)OC)[C@@H](OC(C)=O)[C@H](OC(=O)C3(C)OC3C)[C@H]12` (stereo not given in full), for which the concentration for 50% growth inhibition (GI50) in assay [1] was 9.13 µM and 370 nM and 2.36 µg/mL; in [2], 0.817 µg/mL; in [3] it was 1.47 µM and 3.2 µM and 2.29 µg/mL; in assay [4], 0.0891 µM and 0.122 µM; in [5], 1.5 µM and 2.97 µM and 2.45 µg/mL; in assay [6], 2.6 µg/mL. Besides, the GI50 was 899 nM and 3.85 µM and 0.482 µg/mL in [7]; 2.29 µM and 2.04 µM and 2.66 µg/mL in [9]; 5.54 µM and 11.2 µM and 2.27 µg/mL in assay [10]. For the same compound, the TGI in assay [1] is 1.64 µM and 7.08 µg/mL; in assay [2], 3.13 µM and 1.26 µg/mL; in assay [3], 3.17 µM and 14.6 µM and 5.62 µg/mL; in assay [4], 0.242 µM and 0.241 µM; in assay [5], 4.68 µM and 10.4 µM and 6.03 µg/mL; in [6], 8.82 µM and 4.66 µg/mL. The concentration for total growth inhibition (TGI) in [7] was 2.78 µM and 32.2 µM and 2.13 µg/mL; in assay [9], 6.69 µM and 9.13 µM and 5.8 µg/mL; in assay [10], 21.8 µM and 4.68 µg/mL.
